Entries after “also recorded” stand apart in the source; their conditions may differ. Where two headings read alike, the source gives them in different places.
Columns and labels:
[1] = target: human DAT (hDAT) (Homo sapiens, UniProt Q01959); assay: Radiotracer uptake inhibition in HEK293 cells expressing hDAT; assay type: cell-based; conditions: for DAT / NET ratio (uptake inhibition): 1/(DAT IC50) divided by 1/(NET IC50); for DAT / SERT ratio (uptake inhibition): 1/(DAT IC50) divided by 1/(SERT IC50); for IC50: IC50 DAT, inhibition of transporter-mediated uptake, hDAT, [3H]MPP+ 20 nM, mean ± SEM, n=3
[2] = target: human NET (hNET) (Homo sapiens, UniProt P23975); assay: Radiotracer uptake inhibition in HEK293 cells expressing hNET; assay type: cell-based; conditions: for NET / SERT ratio (uptake inhibition): 1/(NET IC50) divided by 1/(SERT IC50); for IC50: IC50 NET, inhibition of transporter-mediated uptake, hNET, [3H]MPP+ 20 nM, mean ± SEM, n=3
[3] = target: human SERT (hSERT) (Homo sapiens, UniProt P31645); assay: Radiotracer uptake inhibition in HEK293 cells expressing hSERT; assay type: cell-based; conditions: for IC50: IC50 SERT, inhibition of transporter-mediated uptake, hSERT, [3H]5HT 100 nM, mean ± SEM, n=3
[4] = target: T1, hDAT (Homo sapiens, UniProt Q01959); assay type: cell-based; conditions: 5 µM, without monensin, HEK293 cells
[5] = target: hNET (Homo sapiens, UniProt P23975); assay type: cell-based; conditions: 5 µM, without monensin, HEK293 cells
[6] = target: T2, hSERT (Homo sapiens, UniProt P31645); assay type: cell-based; conditions: 5 µM, without monensin, HEK293 cells
[7] = target: T3, DAT (Rattus norvegicus, UniProt P23977); assay: Release of [3H]MPP+ from rat striatal synaptosomes; assay type: biochemical; conditions: for DAT / NET ratio (release): 1/(DAT EC50) divided by 1/(NET EC50); for DAT / NET ratio (release) / DAT / SERT ratio (release): rat brain synaptosomes; for DAT / SERT ratio (release): 1/(DAT EC50) divided by 1/(SERT EC50)
[8] = test system: NET; assay: Release of [3H]MPP+ from rat brain synaptosomes; assay type: biochemical; conditions: 1/(NET EC50) divided by 1/(SERT EC50)
[9] = target: SERT (Rattus norvegicus, UniProt P31652); assay: Release of [3H]5-HT from rat brain synaptosomes; assay type: biochemical
[10] = target: T2, hSERT; conditions: for Ionic current mediated via hSERT: cells clamped to −60 mV, representative traces; for Kind of current evoked in SERT-expressing cells: whole-cell patch clamp, in words
[11] = test system: vesicular monoamine transporter 2 (VMAT2); conditions: at concentrations up to 100 μM; ref Partilla et al., 2006; cited from earlier work
[12] = target: T3, DAT; conditions: in vitro findings; ref Rothman et al., 2002; cited from earlier work
[13] = test system: extracellular dopamine and serotonin in rat nucleus accumbens; conditions: systemic administration, ref Rothman et al., 2002; cited from earlier work
[14] = target: T1, hDAT; conditions: ref Solis et al., 2016; cited from earlier work

Sequence of human NET (hNET) (P23975 whole entry): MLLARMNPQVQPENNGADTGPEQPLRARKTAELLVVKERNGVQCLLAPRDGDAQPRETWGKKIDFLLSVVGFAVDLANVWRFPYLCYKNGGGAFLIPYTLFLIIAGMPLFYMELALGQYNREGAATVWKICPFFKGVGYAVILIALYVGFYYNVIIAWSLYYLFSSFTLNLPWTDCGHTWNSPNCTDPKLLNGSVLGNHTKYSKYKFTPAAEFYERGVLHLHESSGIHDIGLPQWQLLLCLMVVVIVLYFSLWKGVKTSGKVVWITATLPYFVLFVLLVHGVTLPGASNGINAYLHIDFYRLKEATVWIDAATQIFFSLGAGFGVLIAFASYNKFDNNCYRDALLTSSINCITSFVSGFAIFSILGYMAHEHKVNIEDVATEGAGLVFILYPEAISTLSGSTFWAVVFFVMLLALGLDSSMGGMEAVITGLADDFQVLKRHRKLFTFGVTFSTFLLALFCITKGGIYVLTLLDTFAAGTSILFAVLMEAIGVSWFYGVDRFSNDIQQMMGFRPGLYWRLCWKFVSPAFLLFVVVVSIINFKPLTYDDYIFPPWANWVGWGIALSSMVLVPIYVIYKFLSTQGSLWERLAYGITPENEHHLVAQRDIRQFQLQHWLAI
T3 sequence (P23977 whole entry): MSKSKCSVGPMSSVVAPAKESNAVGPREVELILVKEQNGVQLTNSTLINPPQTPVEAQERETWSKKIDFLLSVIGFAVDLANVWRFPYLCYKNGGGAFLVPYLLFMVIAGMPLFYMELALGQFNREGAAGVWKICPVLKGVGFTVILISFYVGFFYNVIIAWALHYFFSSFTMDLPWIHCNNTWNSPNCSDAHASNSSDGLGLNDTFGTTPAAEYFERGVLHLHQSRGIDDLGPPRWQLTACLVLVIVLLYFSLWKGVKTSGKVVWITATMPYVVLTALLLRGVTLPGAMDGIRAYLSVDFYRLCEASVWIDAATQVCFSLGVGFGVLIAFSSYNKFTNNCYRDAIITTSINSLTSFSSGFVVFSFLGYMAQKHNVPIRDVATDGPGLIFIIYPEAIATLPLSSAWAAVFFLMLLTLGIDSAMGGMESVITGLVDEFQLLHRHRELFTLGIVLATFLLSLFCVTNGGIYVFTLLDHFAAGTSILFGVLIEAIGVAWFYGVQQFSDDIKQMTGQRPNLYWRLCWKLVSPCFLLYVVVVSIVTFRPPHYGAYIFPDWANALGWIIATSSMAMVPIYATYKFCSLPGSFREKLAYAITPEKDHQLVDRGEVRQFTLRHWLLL
Sequence of human SERT (hSERT) (P31645 whole entry): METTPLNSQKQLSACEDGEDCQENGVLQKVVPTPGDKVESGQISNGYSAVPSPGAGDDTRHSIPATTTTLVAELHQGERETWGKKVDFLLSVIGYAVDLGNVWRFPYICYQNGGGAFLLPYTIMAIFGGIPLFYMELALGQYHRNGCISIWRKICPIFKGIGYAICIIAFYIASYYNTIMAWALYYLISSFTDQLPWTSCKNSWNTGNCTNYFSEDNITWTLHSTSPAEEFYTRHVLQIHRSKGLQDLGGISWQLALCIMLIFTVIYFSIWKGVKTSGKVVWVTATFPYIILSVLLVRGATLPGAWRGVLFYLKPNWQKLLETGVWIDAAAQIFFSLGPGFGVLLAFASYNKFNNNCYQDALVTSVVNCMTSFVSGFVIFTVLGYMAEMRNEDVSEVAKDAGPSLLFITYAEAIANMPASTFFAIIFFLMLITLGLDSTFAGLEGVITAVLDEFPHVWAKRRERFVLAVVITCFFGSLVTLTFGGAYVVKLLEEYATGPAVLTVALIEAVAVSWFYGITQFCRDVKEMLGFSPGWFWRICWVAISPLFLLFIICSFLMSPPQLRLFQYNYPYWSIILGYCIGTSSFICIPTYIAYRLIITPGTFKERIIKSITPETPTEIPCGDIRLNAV
T2 sequence (P31645 whole entry): as above
Sequence of SERT (P31652 whole entry): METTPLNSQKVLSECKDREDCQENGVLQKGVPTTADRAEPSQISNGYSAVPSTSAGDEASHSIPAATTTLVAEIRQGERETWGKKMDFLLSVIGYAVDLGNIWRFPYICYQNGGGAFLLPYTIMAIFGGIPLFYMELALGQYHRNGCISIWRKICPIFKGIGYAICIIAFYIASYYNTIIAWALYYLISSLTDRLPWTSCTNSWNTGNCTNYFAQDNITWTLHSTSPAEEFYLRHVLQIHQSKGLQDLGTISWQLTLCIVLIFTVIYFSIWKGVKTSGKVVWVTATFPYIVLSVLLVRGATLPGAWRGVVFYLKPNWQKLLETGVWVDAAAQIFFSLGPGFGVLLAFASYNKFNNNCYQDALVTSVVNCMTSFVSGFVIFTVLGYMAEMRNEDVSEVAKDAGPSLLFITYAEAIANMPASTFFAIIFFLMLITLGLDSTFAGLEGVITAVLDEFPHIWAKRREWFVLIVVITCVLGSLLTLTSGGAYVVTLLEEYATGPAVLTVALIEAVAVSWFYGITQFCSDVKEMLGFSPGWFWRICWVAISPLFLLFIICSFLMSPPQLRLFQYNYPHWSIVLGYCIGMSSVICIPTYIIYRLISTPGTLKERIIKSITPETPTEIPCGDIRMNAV
T1 sequence (Q01959 whole entry): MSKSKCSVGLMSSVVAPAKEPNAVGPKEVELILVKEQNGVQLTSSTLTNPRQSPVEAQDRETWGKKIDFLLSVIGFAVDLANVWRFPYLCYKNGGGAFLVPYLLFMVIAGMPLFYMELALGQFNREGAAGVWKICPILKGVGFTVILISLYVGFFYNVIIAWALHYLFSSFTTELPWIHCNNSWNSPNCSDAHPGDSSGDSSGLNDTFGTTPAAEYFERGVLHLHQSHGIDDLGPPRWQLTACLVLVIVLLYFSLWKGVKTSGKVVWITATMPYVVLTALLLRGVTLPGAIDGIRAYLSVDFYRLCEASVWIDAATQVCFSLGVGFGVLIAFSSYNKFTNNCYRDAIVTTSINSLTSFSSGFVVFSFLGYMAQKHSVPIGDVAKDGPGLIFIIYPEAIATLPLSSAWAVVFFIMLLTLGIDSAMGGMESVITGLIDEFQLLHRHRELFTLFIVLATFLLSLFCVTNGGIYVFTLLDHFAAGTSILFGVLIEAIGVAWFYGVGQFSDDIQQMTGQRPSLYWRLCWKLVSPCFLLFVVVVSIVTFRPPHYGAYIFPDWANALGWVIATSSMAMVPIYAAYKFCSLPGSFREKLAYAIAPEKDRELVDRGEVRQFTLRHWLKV
Sequence of human DAT (hDAT) (Q01959 whole entry): as above
Sequence of hNET (P23975 whole entry): as the sequence (P23975 whole entry) above

SMILES | DAT / NET ratio (uptake inhibition) [1] | DAT / SERT ratio (uptake inhibition) [1] | IC50 [1] | NET / SERT ratio (uptake inhibition) [2] | IC50 [2] | IC50 [3] | Effect on efflux of [3H]MPP+ via hDAT versus basal [4] | Effect on efflux of [3H]MPP+ via hNET versus basal [5] | Effect on efflux of [3H]5-HT via hSERT versus basal [6] | EC50 [7] | DAT / NET ratio (release) [7] | DAT / SERT ratio (release) [7] | NET / SERT ratio (release) [8] | EC50 [9] | Ionic current mediated via hSERT ([10]; 30 µM) | Kind of current evoked in SERT-expressing cells [10] | Ionic current mediated via hSERT ([10]; 10 µM) | further results
CC1NCCOC1c1ccccc1F (centres unmarked) [2-FPM, 2-(2-Fluorophenyl)-3-methylmorpholine] | 0.97 | 340.1 | 1330 ± 90 nM | 351.4 | 1290 ± 30 nM | 454000 ± 15400 nM | increased tritium outflow above basal levels | increased tritium outflow above basal levels | no detectable effect | 112 ± 10 nM | 0.25 | 43 | 172 | 4810 ± 1260 nM | −4 pA | inwardly directed ionic currents | – | Effect on SERT mediated uptake ([3]; at concentrations below 30 µM): no obvious effect
CC1NCCOC1c1cccc(F)c1 (centres unmarked) [3-FPM, 2-(3-fluorophenyl)-3-methylmorpholine] | 1.31 | 96.4 | 1160 ± 290 nM | 73.7 | 1510 ± 170 nM | 112000 ± 13100 nM | – | – | – | 60 ± 4 nM | 0.28 | 21 | 75 | 1270 ± 207 nM | – | inwardly directed ionic currents | −3.8 pA | –
CC1NCCOC1c1ccc(F)cc1 (centres unmarked) [4-FPM, 2-(4-fluorophenyl)-3-methylmorpholine] | 0.96 | 41.2 | 2140 ± 390 nM | 42.9 | 2050 ± 280 nM | 88100 ± 1830 nM | increased tritium outflow above basal levels | increased tritium outflow above basal levels | significantly enhanced basal release; also recorded: moderate release | 191 ± 17 nM | 0.30 | 10 | 33 | 1890 ± 424 nM | – | inwardly directed ionic currents | −2.5 pA | –
NCCc1c[nH]c2ccc(O)cc12 [5-HT, 5-hydroxytryptamine, reference compound] | – | – | – | – | – | – | – | – | – | – | – | – | – | – | −7 pA | inwardly directed ionic currents | – | –
COC(=O)[C@H]1[C@@H](OC(=O)c2ccccc2)C[C@@H]2CC[C@H]1N2C [cocaine, reference compound] | – | – | – | – | – | – | – | – | – | – | – | – | – | – | – | – | outwardly directed current | –
CC1NCCOC1c1ccccc1 (centres unmarked) [phenmetrazine] | – | – | – | – | – | – | – | – | – | – | – | – | – | – | – | – | – | Interaction with VMAT2 as an inhibitor or substrate [11]: does not interact; DAT-selectivity compared to SERT [12]: at least 10 fold; Extracellular dopamine and serotonin in nucleus accumbens [13]: dose-related elevations; Current induced in cells expressing hDAT [14]: inwardly-directed sodium current

Source: paper PMC7294773 (Neuropharmacology, 2017)
